Literature values as cited in US20200268761A1 (CIPLA LIMITED, priority 2017, published 2020).

Key:
p-glycoprotein = p-glycoprotein (Homo sapiens, UniProt P08183)
CYP3A4 = CYP3A4 (Homo sapiens, UniProt P08684); settings: major drug metabolizing enzyme
CYP3A4, sequence (P08684 whole entry, species assumed): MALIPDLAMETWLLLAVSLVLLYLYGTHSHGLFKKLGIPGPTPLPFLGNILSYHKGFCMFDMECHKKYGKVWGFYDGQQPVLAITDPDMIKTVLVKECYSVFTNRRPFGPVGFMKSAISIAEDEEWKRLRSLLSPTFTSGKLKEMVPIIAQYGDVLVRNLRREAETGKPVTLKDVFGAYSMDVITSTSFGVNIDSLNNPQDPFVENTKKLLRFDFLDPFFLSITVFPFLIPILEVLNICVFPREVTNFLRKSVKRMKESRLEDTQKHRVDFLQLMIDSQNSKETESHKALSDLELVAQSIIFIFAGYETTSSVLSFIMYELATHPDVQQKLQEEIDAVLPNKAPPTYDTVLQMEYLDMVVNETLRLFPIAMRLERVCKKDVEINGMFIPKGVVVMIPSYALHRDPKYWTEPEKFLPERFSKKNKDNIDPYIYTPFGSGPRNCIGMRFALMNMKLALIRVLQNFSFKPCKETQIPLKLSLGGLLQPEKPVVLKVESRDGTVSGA

p-glycoprotein, sequence (P08183 whole entry): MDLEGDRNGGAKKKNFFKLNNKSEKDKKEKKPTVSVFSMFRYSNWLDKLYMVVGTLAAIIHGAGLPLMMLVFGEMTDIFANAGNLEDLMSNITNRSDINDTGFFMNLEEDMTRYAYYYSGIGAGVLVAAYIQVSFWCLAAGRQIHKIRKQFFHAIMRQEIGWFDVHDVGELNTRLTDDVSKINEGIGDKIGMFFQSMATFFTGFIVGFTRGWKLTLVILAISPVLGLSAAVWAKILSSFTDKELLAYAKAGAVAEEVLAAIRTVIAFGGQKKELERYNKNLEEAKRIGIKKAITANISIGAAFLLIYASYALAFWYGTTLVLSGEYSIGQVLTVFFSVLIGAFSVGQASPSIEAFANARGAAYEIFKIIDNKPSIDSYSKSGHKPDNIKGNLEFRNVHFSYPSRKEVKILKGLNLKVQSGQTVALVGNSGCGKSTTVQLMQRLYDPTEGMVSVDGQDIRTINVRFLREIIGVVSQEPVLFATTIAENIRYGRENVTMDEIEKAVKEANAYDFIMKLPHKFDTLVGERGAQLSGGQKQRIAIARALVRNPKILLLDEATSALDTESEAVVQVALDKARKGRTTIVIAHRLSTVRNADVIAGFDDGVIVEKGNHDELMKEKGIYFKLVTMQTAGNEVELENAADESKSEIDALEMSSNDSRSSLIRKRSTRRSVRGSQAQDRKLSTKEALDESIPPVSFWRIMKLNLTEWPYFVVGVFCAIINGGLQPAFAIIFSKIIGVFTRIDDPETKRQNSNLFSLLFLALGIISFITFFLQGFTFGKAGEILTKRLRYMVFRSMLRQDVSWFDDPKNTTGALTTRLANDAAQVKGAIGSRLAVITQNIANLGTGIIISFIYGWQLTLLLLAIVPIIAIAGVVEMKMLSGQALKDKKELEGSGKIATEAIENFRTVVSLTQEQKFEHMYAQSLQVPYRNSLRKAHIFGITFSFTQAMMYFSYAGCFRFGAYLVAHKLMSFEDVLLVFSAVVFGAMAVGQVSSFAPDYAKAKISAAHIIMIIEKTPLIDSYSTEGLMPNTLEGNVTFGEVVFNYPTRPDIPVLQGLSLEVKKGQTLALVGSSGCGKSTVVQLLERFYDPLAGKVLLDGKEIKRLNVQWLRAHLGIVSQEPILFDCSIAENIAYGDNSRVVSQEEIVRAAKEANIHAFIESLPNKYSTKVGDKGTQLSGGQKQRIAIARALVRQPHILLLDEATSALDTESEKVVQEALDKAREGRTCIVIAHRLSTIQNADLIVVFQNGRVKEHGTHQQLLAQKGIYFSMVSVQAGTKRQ

solubility in HCl at pH 1.2 (HCl, pH 1.2) | solubility in N,N-dimethylformamide, tetrahydrofuran and dichloromethane (N,N-dimethylformamide, tetrahydrofuran, dichloromethane) | solubility in acetone and methanol (acetone, methanol) | solubility in ethyl acetate, ethanol and acetonitrile (ethyl acetate, ethanol, acetonitrile) | solubility in non-polar solvents (non-polar solvents such as hexane and heptanes) | solubility in water (water, ibrutinib base) | inhibition of p-glycoprotein (p-glycoprotein) | inhibition of CYP3A4 (CYP3A4) | SMILES
slightly soluble | freely soluble | soluble | sparingly soluble | practically insoluble | practically insoluble |  |  | C=CC(=O)N1CCC[C@@H](n2nc(-c3ccc(Oc4ccccc4)cc3)c3c(N)ncnc32)C1 [Ibrutinib]
 |  |  |  |  |  | inhibits | inhibits | O=C(/C=C/C=C/c1ccc2c(c1)OCO2)N1CCCCC1 [Piperine, (E.E.) 1˜[5,3-benzodioxyl-5-yl)-1-oxo-2,4-pentadienyl-piperidine]
